From patent US12539289B2, “Phorbol ester compositions and methods of use for treating or reducing the duration of cytopenia” (BIOSUCCESS BIOTECH CO., LTD., priority 2014, dated 2026)

Tested on: neutropenia and thrombocytopenia
Assay: Phase 2a study of phorbol ester in AML patients who receive induction chemotherapy
Format: in vivo, human
Conditions: AML patients after 3+7 induction; TPA 0.125 mg/m^2 IV with G-CSF 400 μg support; standard deviation of 5 days; usual 20±3 days
Procedure: This is a single-arm, open label study. Ten (10) patients receive standard induction chemotherapy with idarubicin (12 mg/m2) or daunorubicin (60 mg/m2) on days 1, 2, 3 and Ara-C continuous (100-200 mg/m2/day) infusion on days 1-7. On Day 8 or 24 hours after completion of all scheduled Ara-C infusion, TPA is started at 0.125 mg/m^2 IV every two days, in addition to G-CSF (400 μg subcutaneously daily) support until absolute neutrophil count (ANC) above 1000/μL for two consecutive days.”
This study is designed to examine the efficacy of TPA as a supportive care agent to enhance bone marrow recovery in AML patients after induction chemotherapy. Study Objectives: • 1. Evaluate the safety and tolerability of TPA in AML patients after induction chemotherapy • 2. Evaluate preliminary efficacy in shortening of the duration of neutropenia and thrombocytopenia in AML patients after induction chemotherapy • 3. […] AML should be classified by FAB classification, and all subtypes are allowed and recorded during enrollment, except patients with M3 or acute promyelocytic leukemia. • 3. […]
Evaluation of neutropenia and thrombocytopenia after induction chemotherapy is done by daily hematological tests, including complete blood count and differential count. […] The duration of neutropenia and thrombocytopenia is assessed separately and the ANC and platelet counts should be plotted in a diagram for each patient. […]

SMILES: CCCCCCCCCCCCCC(=O)O[C@@H]1[C@@H](C)[C@@]2(O)[C@@H](C=C(CO)C[C@]3(O)C(=O)C(C)=C[C@@H]23)[C@@H]2C(C)(C)[C@]12OC(C)=O [TPA, 12-O-tetradecanoylphorbol-13-acetate]
- Duration of neutropenia or thrombocytopenia: 12 days
